Assay results reported in article PMC3864238 (Pharmaceutics, 2011).

How the values were obtained:
[1] = test system: PBMCs; test: Cellular association ratio (CAR) of radiolabelled drugs in PBMCs, drug-drug interaction; format: in vitro ADME, human; details: for effect of incubation at 4 °C on cell-associated concentration / cellular association ratio (CAR): PBMCs; for effect of incubation at 4 °C on cell-associated concentration: 4 °C vs 37 °C; for effect of unlabelled drug on CAR of [^3H]-ddI: 1 μM [^3H]-ddI; for effect of unlabelled drug on CAR of [^3H]-ddI / effect of unlabelled drug on CAR of [^3H]-TDF: dI 100 μM; for cellular association ratio (CAR): 1 μM labelled drug, 30–45 min, no interacting drug, mean ± S.D.; for effect of unlabelled drug on CAR of [^3H]-TDF: 1 μM [^3H]-TDF
Protocol: 11 PBMC samples were isolated from blood buffy coats using Lymphoprep (Alexis-sheild, Oslo, Norway), following the manufacturer's instructions. An aliquot of the PBMC samples were cryopreserved in fetal calf serum containing 10% dimethyl sulphoxide for batch analysis of membrane proteins by flow cytometry.
We also used 50 μM dipyridamole, 100 μM of deoxycytidine (dC), deoxyinosine (dI) and deoxyguanosine (dG) as positive controls to inhibit the transport of the drugs. The concentrations used of these inhibitors were based on previous observations. […] In a limited number of PBMC samples, we investigated the effects of two drug combinations on the uptake of labelled compounds as described above. The incubations were terminated by centrifugation (15,000 g, 1 min at 0 °C). A-100 μL aliquot of the supernatant was counted for radioactivity and the cell pellets were washed three times in ice-cold phosphate buffered saline followed by rapid centrifugation before the pellets were solubilised in 100 μL of distilled water as described previously and counted for radioactivity.

[2] = test system: PBMCs; test: Cell fractionation: membrane-bound and intracellular radiolabelled drug in PBMCs; format: in vitro ADME, human; details: 50 μM ABC
Protocol: In a separate experiment, cells were incubated with the tritiated compounds ([^3H]-3TC, -ddI and -TDF) in the absence or presence of 50 μM ABC as described. The assay was terminated by rapid centrifugation in a chilled microcentrifuge and the cell pellets were washed three times in ice-cold PBS as described, followed by three times of rapid freezing in liquid nitrogen and thawing at room temperature. The suspension was layered on top of 1 mL of ice-cold 42% percoll solution containing 0.25 M sucrose, 1.5 mM magnesium chloride, pH 7.1, and centrifuged (12,000 g, 30 min at 4 °C). After centrifugation, the radioactivity in the clear supernatant (assumed as intracellular drug) and in the pellet/debris, harvested from the bottom of the gradient (assumed as membrane-bound drug) were determined by scintillation counting.

[3] = Octanol-saline partition coefficient; format: physicochemical; details: octanol/phosphate buffered saline; radiolabelled drug 10-31 nM
Protocol: Briefly, an equal volume of octanol and phosphate buffered saline (PBS) were presaturated by vigorously vortexing them for 5 min. The suspension was allowed to settle for 10 min before the upper saturated octanol layer was carefully removed and stored in a separate tube. […] Then 540 μL aliquots of each compound were added to an equal volume of presaturated octanol and vortexed for 5 min. The samples were centrifuged (1000 g for 5 min). The concentrations of radiolabelled drug in a volume of the octanol (upper layer) and in a similar volume of saline (lower layer) were measured using scintillation counting. The octanol-saline partition coefficient was determined as a ratio of radiolabelled drug in the octanol phase to radiolabelled drug concentration in the saline phase.

[4] = test system: P-gp; details: cited from earlier work
[5] = test system: BCRP; set-up: method as in PMID 17202245; details: cited from earlier work
[6] = test system: guinea-pig brain perfusion and choroid plexus models; details: cited from earlier work
[7] = test system: MRP; set-up: method as in PMID 17328866, PMID 17202245, PMID 19075072; details: cited from earlier work
[8] = test system: CEM, CEMVBL (P-gp-overexpressing), CEME1000 (MRP1-overexpressing) and U937 cells; test: Preliminary transport experiments in cell lines; format: in vitro ADME; details: data not shown; for concentration-dependent effect of unlabelled drug on accumulation of the labelled drugs: 0-100 μM unlabelled drug, CEM, CEMVBL, CEME1000 and U937 cells
[9] = test system: P-gp; set-up: method as in PMID 11145192; details: cited from earlier work
[10] = unlabelled drugs 50 μM, dipyridamole 50 μM

Compound	effect of incubation at 4 °C on cell-associated concentration [1]	intracellular drug concentration, effect of ABC [2]	membrane-bound drug concentration, effect of ABC [2]	Partition coefficient (mean ± SD) [3]	inhibition of MRP activity [7]	concentration-dependent effect of unlabelled drug on accumulation of the labelled drugs [8]	other results
O=c1[nH]cnc2c1ncn2[C@H]1CC[C@@H](CO)O1 [ddI, didanosine]	significantly (P < 0.001) reduced at 4 °C	significantly (P < 0.05) decreased	unaffected				
Nc1nc(NC2CC2)c2ncn([C@H]3C=C[C@@H](CO)C3)c2n1 [ABC, abacavir]	did not affect			7.065 ± 0.44	inhibited	no concentration-dependent effects	effect of unlabelled drug on CAR of [^3H]-ddI [1, 10]: no effect; cellular association ratio (CAR) [1]: 7.62 ± 1.32; inhibition of P-gp activity [4]: inhibited; BCRP inhibitory effect [5]: inhibits; effect on intracellular accumulation of [^3H]-ddI [6]: increased
Nc1ccn([C@@H]2CS[C@H](CO)O2)c(=O)n1 [3TC, lamivudine]	significantly (P < 0.001) reduced at 4 °C	unaffected	significantly (P < 0.05) decreased	0.117 ± 0.0049	inhibited	no concentration-dependent effects	P-gp substrate [9]: not a substrate; P-gp substrate ([8]; preliminary studies): not a P-gp substrate
OC[C@@H](O)[C@@H](O)[C@H](O)[C@H](O)CO [[^14C]-Mannitol, mannitol]				0.0022 ± 0.0001			
OCCN(CCO)c1nc(N2CCCCC2)c2nc(N(CCO)CCO)nc(N3CCCCC3)c2n1 [dipyridamole]							effect of unlabelled drug on CAR of [^3H]-TDF [1, 10]: unaffected
OC[C@H]1O[C@@H](n2cnc3c(O)ncnc32)C[C@@H]1O [dI, deoxyinosine]							effect of unlabelled drug on CAR of [^3H]-TDF [1, 10]: unaffected
CC(C)OC(=O)OCOP(=O)(CO[C@H](C)Cn1cnc2c(N)ncnc21)OCOC(=O)OC(C)C.O=C(O)/C=C/C(=O)O [TDF, Tenofovir disoproxil fumarate]	significantly (P < 0.001) reduced at 4 °C	unaffected	unaffected		inhibited	no concentration-dependent effects	effect of unlabelled drug on CAR of [^3H]-3TC ([1]; 1 μM [^3H]-3TC, unlabelled drugs 50 μM, dipyridamole 50 μM, dC 100 μM): significantly (P < 0.05) reduced uptake; effect of unlabelled drug on CAR of [^3H]-ddI [1, 10]: no effect; cellular association ratio (CAR) [1]: 2.20 ± 0.29; inhibition of P-gp activity [4]: inhibited; BCRP inhibitory effect [5]: devoid of any BCRP inhibitory effect
